Consider three molecules from the NIST ThermoML archive (doi:10.1016/j.fluid.2015.02.007).

A short description of series [1]: Molar enthalpy of transition or fusion. Conditions: Crystal; DSC.
The conditions of series [2]: Crystal; DTA.

± gives the expanded uncertainty stated by the source.

Regarding `O=C(O)c1cccnc1Nc1cccc(C(F)(F)F)c1`, the “Molar enthalpy of transition or fusion” value in series [1] turned out to be 8.38 ± 0.182 kcal/mol. Further, the Normal melting temperature in series [2] was 204.00 ± 1.5 °C.

In the case of `Cc1c(Cl)cccc1Nc1ccccc1C(=O)O` [2-[(3-chloro-2-methylphenyl)amino]benzoic acid], the “Molar enthalpy of transition or fusion” value in series [1] was found to be 7.52 ± 0.165 kcal/mol. The Normal melting temperature in series [2] was determined as 214.00 ± 1.1 °C.

For the molecule `O=C(O)c1ccccc1Nc1cccc(Cl)c1Cl` [clofenamic acid], the “Molar enthalpy of transition or fusion” value in series [1] turned out to be 7.26 ± 0.16 kcal/mol. For the same molecule, the Normal melting temperature in series [2] was found to be 171.00 ± 0.88 °C.
